Data: publication PMC8329300, “X-ray crystallography reveals molecular recognition mechanism for sugar binding in a melibiose transporter MelB” (Communications Biology, 2021)

Molecular target: T1, D59C MelBSt (Salmonella typhimurium, UniProt P30878, D59C)
T1 construct: Cys scanning mutagenesis for the full-length MelBSt; His10 (C); made in house; host or cells: E. coli DW2
Test: Trp→dansyl galactoside (D2G) FRET time trace and IC50 of D2G displacement (D59C)
Assay type: binding
Conditions: IC50 of galactoside displacement on bound D2G, α-NPG, 10 μM D2G
Protocol: Fig. 1 Functional characterizations. a [^3H] Melibiose transport time course with intact cells. […] Inset, melibiose fermentation assay. Transformants with DW2 strain were plated on MacConkey agar plates containing 30 mM melibiose as the sole carbohydrate source and pH sensor neutral red, and incubated at 37 °C for 16–18 h before imaging. Number of tests = 3, from different batch of cells or duplicate measurements from same batch of sample. b Ligand binding by Trp→dansyl galactoside (D^2G) FRET assay. Purified proteins at 1 μM concentration in 20 mM Tris-HCl, pH 7.5, 100 mM CholCl, 10% glycerol, and 0.03% UDM were subjected to steady-state fluorescence measurements as described in Methods. On the time-trace, 1.8 μL of 1 mM D^2G at 10 μM was added into 180 μL of protein solutions at 1-min point, followed by supplying 10 μL of 5 mM DDMB or 5 mM α-NPG to displace the bound D^2G. For testing Na^+ or Li^+ binding, they are added into the solution before displacement with the second sugar. The structure of DDMB or α-NPG is shown in a chair form, and the carbon positions are labeled. Glycosidic bonds are indicated by arrows. Both are α-galactosides containing a substituent at the anomeric carbon-1. The data were from duplicate measurements.
Steady-state fluorescence measurements were performed with an AMINCO-Bowman series 2 spectrometer with purified MelBSt at 1 μM in 20 mM Tris-HCl, pH 7.5, 100 mM CholCl, 10% glycerol, 0.03% UDM. Using an excitation wavelength at 290 nm, the emission intensity was recorded at 490 nm. On a time-trace, D^2G, NaCl or LiCl, then DDMB or α-NPG, were sequentially added into the protein solutions at a 1 min-interval. […] An identical volume of water was used for the control. The decrease in intensity after each addition of DDMB or α-NPG was corrected by the dilution effect and plotted as a function of the accumulated α-NPG concentrations or estimated DDMB concentrations. The 50% inhibitory concentration (IC50) was determined by fitting a hyperbolic function to the data (OriginPro 2020b). The final concentration of each detergent is estimated to be 234 μM, which is less than their CMC value for (DDMB, 295 μM).
Supplementary Figure 2. Determination of DDMB binding affinity to MelBSt. (a) Titration with DDMB or a-NPG. MelBSt in 20 mM Tris-HCl, pH 7.5, 100 mM CholCl, 10% glycerol, 0.03% UDM without (1) or with 100 mM NaCl (2) were added with D2G at 10 μM at 1-min time point as indicated by triangle symbols on the Trp®dansyl FRET time trace. Starting at the 2-min of time point, DDMB or a-NPG solution was supplemented consecutively at a 1-min interval into MelBSt solution till no change in fluorescence intensity reached as indicated in star symbols. DDM and UDM were used as negative controls. 1% DDM or UDM was titrated into the mixture, The […]
At 2-min time point, additions of galactosides were colored in pink, a-NPG in yellow, UDM in blue, DDM in light blue, water in gray traces, respectively. (b) IC50 determination. The intensity decrease at each titration were corrected by the dilution effect, and plotted as a function of the accumulated DDMB or α-NPG concentration. The 50% inhibitory concentration (IC50) was determined by fitting the data to a hyperbolic function (OriginPro 2020b). Results are presented in […]
(1 picture or pasted object on this page, not shown here)

T1 sequence (P30878 whole entry D59C): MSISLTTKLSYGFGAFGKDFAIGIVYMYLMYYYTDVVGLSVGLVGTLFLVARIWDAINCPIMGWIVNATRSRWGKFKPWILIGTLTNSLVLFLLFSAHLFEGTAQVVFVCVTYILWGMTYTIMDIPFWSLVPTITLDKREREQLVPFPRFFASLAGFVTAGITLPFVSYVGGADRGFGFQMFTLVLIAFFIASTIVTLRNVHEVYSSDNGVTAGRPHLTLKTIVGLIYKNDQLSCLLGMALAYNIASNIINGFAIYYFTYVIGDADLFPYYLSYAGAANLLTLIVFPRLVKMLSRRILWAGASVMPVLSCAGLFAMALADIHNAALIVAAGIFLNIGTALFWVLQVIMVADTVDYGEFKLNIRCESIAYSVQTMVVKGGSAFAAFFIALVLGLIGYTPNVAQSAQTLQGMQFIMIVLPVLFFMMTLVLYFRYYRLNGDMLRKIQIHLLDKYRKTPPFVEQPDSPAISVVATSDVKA

For O=[N+]([O-])c1ccc(OC2OC(CO)C(O)C(O)C2O)cc1 [α-NPG, 4-nitrophenyl-α-D-galactopyranoside], the IC50 (Apo) was 22.1 ± 5.75 µM and the IC50 (Na+ (100 mM)) was 21.3 ± 1.67 µM.
